Experimental data reported in patent publication US11090304B2 (Amgen Inc., priority 2018, dated 2021).
Like-named read-outs stand apart in the source and are kept apart here.

Tests used:
[1] = target: GDP-bound KRAS protein (aa 1-169), containing both G12C and C118A amino acid substitutions (Homo sapiens, UniProt P01116, C118A/G12C); experiment: Coupled nucleotide exchange assay (SOS-mediated, AlphaScreen); format: biochemical; conditions: 5 min compound pre-incubation; for IC50: read-out: Coupled exchange IC50 (5 min)
Chain of GDP-bound KRAS protein (aa 1-169), containing both G12C and C118A amino acid substitutions (P01116 1-169 isoform P01116-2 G12C/C118A): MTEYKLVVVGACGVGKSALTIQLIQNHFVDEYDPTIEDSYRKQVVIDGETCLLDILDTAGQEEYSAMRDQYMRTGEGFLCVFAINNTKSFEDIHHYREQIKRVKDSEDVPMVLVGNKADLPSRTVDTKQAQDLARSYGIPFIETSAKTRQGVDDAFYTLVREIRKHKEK

[2] = tested on: Phosphorylation of ERK1/2 in MIA PaCa-2 cells; experiment: Phospho-ERK1/2 MSD assay in MIA PaCa-2 cells; format: cell-based; conditions: read-out: p-ERK IC50 (2 h; MIA PaCa-2), 2 h compound treatment
Summary of the method: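 Following a 2 or 4 h incubation with titrated compound, cells receive a 10 min pulse of 10 ng/mL EGF. Phospho-ERK1/2 in RIPA lysates is then quantified by MSD immunoassay, and IC50 values come from a four-parameter logistic model.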

Structure (SMILES)	Coupled exchange IC50 (5 min) [1]	IC50 [2]	IC50 ([2]; Homo sapiens, MIA PaCa-2, 2 h)	IC50 [1]
C=CC(=O)N1CCN(c2nc(=O)n(-c3c(C)ccnc3C(C)C)c3nc(-c4ccccc4F)c(C)cc23)[C@@H](C)C1 (single isomer, unassigned) [Example 74-2-2]	2.325 | nda μM	1040 nM		
C=CC(=O)N1CCN(c2nc(=O)n(-c3nccnc3C(C)C)c3nc(-c4ccccc4F)c(F)cc23)[C@@H](C)C1 [Example 57-2, 6-fluoro-7-(2-fluorophenyl)-4-((2S)-2-methyl-4-(2-propenoyl)-1-piperazinyl)-1-(3-(2-propanyl)-2-pyrazinyl)pyrido[2,3-d]pyrimidin-2(1H)-one]	0.74 | nda μM		300 nM	
C=CC(=O)N1C[C@H](C)N(c2nc(=O)n(-c3c(C)ccnc3C(C)C)c3nc(-c4c(N)cccc4F)c(F)cc23)[C@@H](C)C1 (atropisomer, axis not shown; (M)) [Example 72-13, (M)-7-(2-amino-6-fluorophenyl)-4-((2S,6S)-2,6-dimethyl-4-(2-propenoyl)-1-piperazinyl)-6-fluoro-1-(4-methyl-2-(2-propanyl)-3-pyridinyl)pyrido[2,3-d]pyrimidin-2(1H)-one]	0.021 | nda μM		12 nM	
C=CC(=O)N1CCN(c2nc(=O)n(-c3c(C)cccc3C(C)C)c3nc(-c4c(O)cccc4Cl)c(F)cc23)[C@@H](C)C1 (single isomer, unassigned) [Example 68-1-1]	0.084 | nda μM	128 nM		
C=CC(=O)N1CCN(c2nc(=O)n(-c3c(C)cccc3C(C)C)c3nc(-c4c(O)cccc4Cl)c(F)cc23)[C@@H](C)C1 [Example 68-1, 7-(2-Chloro-6-hydroxyphenyl)-6-fluoro-1-(2-methyl-6-(2-propanyl)phenyl)-4-((2S)-2-methyl-4-(2-propenoyl)-1-piperazinyl)pyrido[2,3-d]pyrimidin-2(1H)-one]	0.111 | nda μM		214 nM	
C=CC(=O)N1CCN(c2nc(=O)n(-c3c(C(=O)O)cccc3C(C)C)c3nc(-c4ccccc4F)c(Cl)cc23)[C@@H](C)C1 [Example 132, 2-(6-Chloro-7-(2-fluorophenyl)-4-((2S)-2-methyl-4-(2-propenoyl)-1-piperazinyl)-2-oxopyrido[2,3-d]pyrimidin-1(2H)-yl)-3-(2-propanyl)benzoic acid]	0.107 | nda μM		10000 nM	
C=CC(=O)N1CCN(c2nc(=O)n(-c3c(C)cccc3C(C)(C)C)c3nc(-c4c(O)cccc4F)c(F)cc23)[C@@H](C)C1 (single isomer, unassigned) [Example 57-17-1]	0.316 | nda μM		300 nM	
C=CC(=O)N1CCN(c2nc(=O)n(-c3ccccc3C(C)C)c3nc(-c4cc(O)ccc4F)c(Cl)cc23)[C@@H](C)C1 (single isomer, unassigned) [Example 54-88-1]	0.077 | nda μM		84 nM	
C=CC(=O)N1CCN(c2nc(=O)n(-c3c(C)ccnc3C(C)C)c3nc(-c4ccccc4F)c(Cl)nc23)[C@@H](C)C1 [Example 111, 6-Chloro-7-(2-fluorophenyl)-1-(4-methyl-2-(2-propanyl)-3-pyridinyl)-4-((2S)-2-methyl-4-(2-propenoyl)-1-piperazinyl)-2(1H)-pteridinone]	0.174 | nda μM		195 nM	
C=CC(=O)N1CCN(c2nc(=O)n(-c3c(C)cccc3C(C)C)c3nc(-c4ccccc4F)c(Cl)cc23)[C@@H](C)C1 (atropisomer, axis not shown; (M)) [Example 64-1, (M)-6-Chloro-7-(2-fluorophenyl)-1-(2-methyl-6-(2-propanyl)phenyl)-4-((2S)-2-methyl-4-(2-propenoyl)-1-piperazinyl)pyrido[2,3-d]pyrimidin-2(1H)-one]		76 nM		44 nM
C=CC(=O)N1C[C@@H](C)N(c2nc(=O)n(-c3c(C)ccnc3C(C)C)c3nc(-c4c(N)cccc4F)c(F)cc23)[C@@H](C)C1 (single isomer, unassigned) [Example 75-8]	0.023 | nda μM		38 nM	

Other lines, results leading:

Coupled exchange IC50 (5 min) [1]	IC50 [2]	IC50 ([2]; Homo sapiens, MIA PaCa-2, 2 h)	IC50 [1]	Structure (SMILES)
	106 nM		77 nM	C=CC(=O)N1CCN(c2nc(=O)n(-c3c(C)ccnc3C(C)C)c3nc(-c4c(C)ccc5[nH]ncc45)c(Cl)cc23)[C@@H](C)C1 (atropisomer, axis not shown; (M)) [Example 82-1, (M)-6-Chloro-7-(5-methyl-1H-indazol-4-yl)-1-(4-methyl-2-(2-propanyl)-3-pyridinyl)-4-((2S)-2-methyl-4-(2-propenoyl)-1-piperazinyl)pyrido[2,3-d]pyrimidin-2(1H)-one]
0.121 | nda μM		111 nM		C=CC(=O)N1CCN(c2nc(=O)n(-c3c(C)ncnc3C(C)C)c3nc(-c4cc(F)ccc4F)c(Cl)cc23)[C@@H](C)C1 (single isomer, unassigned) [Example 55-39-2]
0.096 | nda μM		100 nM		C=CC(=O)N1CCN(c2nc(=O)n(-c3c(C)ccnc3C(C)C)c3nc(-c4c(O)cc(F)cc4F)c(F)cc23)[C@@H](C)C1 (atropisomer, axis not shown; (M)) [Example 65-3, (M)-7-(2,4-difluoro-6-hydroxyphenyl)-6-fluoro-1-(4-methyl-2-(2-propanyl)-3-pyridinyl)-4-((2S)-2-methyl-4-(2-propenoyl)-1-piperazinyl)pyrido[2,3-d]pyrimidin-2(1H)-one]
0.154 | nda μM		199 nM		C=CC(=O)N1CCN(c2nc(=O)n(-c3c(C)cc(N(C)C)cc3C(C)C)c3nc(-c4ccccc4F)c(Cl)cc23)[C@@H](C)C1 [Example 55-16, 6-chloro-1-(4-(dimethylamino)-2-methyl-6-(2-propanyl)phenyl)-7-(2-fluorophenyl)-4-((2S)-2-methyl-4-(2-propenoyl)-1-piperazinyl)pyrido[2,3-d]pyrimidin-2(1H)-one]
0.136 | nda μM		176 nM		C=CC(=O)N1CCN(c2nc(=O)n(-c3ccccc3C(C)C)c3nc(-c4ccc(F)cc4O)c(Cl)cc23)[C@@H](C)C1 (single isomer, unassigned) [Example 54-77-2]
0.756 | nda μM		821 nM		C=CC(=O)N1CCN(c2nc(=O)n(-c3ccccc3C(C)C)c3nc(-c4cc(N)ncc4Cl)c(Cl)cc23)[C@@H](C)C1 [Example 54-95, 7-(2-amino-5-chloro-4-pyridinyl)-6-chloro-4-((2S)-2-methyl-4-(2-propenoyl)-1-piperazinyl)-1-(2-(2-propanyl)phenyl)pyrido [2,3-d]pyrimidin-2(1H)-one]
0.061 | nda μM	76 nM			C=CC(=O)N1CCN(c2nc(=O)n(-c3c(C)cccc3C3CC3)c3nc(-c4c(O)cccc4F)c(Cl)cc23)[C@@H](C)C1 (single isomer, unassigned) [Example 55-15-2]
0.073 | nda μM		70 nM		C=CC(=O)N1CCN(c2nc(=O)n(-c3c(CO)cccc3C(C)C)c3nc(-c4ccccc4F)c(Cl)cc23)[C@@H](C)C1 [Example 55-43, 6-chloro-7-(2-fluorophenyl)-1-(2-(hydroxymethyl)-6-(2-propanyl)phenyl)-4-((2S)-2-methyl-4-(2-propenoyl)-1-piperazinyl)pyrido[2,3-d]pyrimidin-2(1H)-one]
